Experimental findings from patent US9822069B2, “Urea derivative or pharmacologically acceptable salt thereof” (KYORIN PHARMACEUTICAL CO. LTD., priority 2013, dated 2017) are described below.

The target in one experiment is T1, human FPRL1 (Homo sapiens, UniProt P25090).
T1 construct: expressed in transfected cells; host or cells: HEK293 (JCRB9068, NIBIO), transient transfection with pCMV-script vectors using Lipofectamine 2000
T1 sequence (P25090 1-351): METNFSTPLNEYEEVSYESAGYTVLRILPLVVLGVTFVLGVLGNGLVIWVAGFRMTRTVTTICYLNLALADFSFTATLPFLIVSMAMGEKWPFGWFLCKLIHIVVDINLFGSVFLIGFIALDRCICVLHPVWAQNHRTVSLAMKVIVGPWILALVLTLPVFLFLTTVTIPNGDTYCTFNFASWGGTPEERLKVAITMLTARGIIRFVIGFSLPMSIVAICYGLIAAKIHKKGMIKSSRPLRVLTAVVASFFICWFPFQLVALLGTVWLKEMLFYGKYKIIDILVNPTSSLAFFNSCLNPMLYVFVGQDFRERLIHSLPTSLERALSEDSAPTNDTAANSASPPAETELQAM
Put plainly: Measurement test of agonist activity on human FPRL1 (test of calcium mobilization in cell, HEK293 with human FPRL1 and Gα15 expression vectors). The class given is cell-based. Conditions: calcium mobilization in HEK293 cells with human FPRL1 and Gα15 expression vectors. In outline: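 HEK293 transiently co-transfected with human FPRL1 and Gα15, plated 24 h before assay, loaded with Fluo-4 NW dye plus probenecid. Compounds in eight 10-fold dilutions (DMSO stocks 10^−2 to 10^−9 M, then diluted 100-fold in assay buffer); calcium mobilization read on Flexstation for EC50.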
On the technique in general: Calcium flux is commonly read through the fluorescence of an indicator in the cells.

A further experiment deals with mouse (BALB/c, male). Put plainly: Effect of lipopolysaccharide induction on neutrophilic infiltration in mouse lung. The class given is in vivo. Conditions: neutrophil infiltration in BAL fluid, LPS-exposed BALB/c mouse, oral; for inhibition in vivo at 1 mg/kg / inhibition in vivo at 3 mg/kg: 5 h, read-out: SUPPRESSION RATIO. On the procedure:
Effect of Lipopolysaccharide Induction on Neutrophilic Infiltration in Mouse Lung A compound to be tested was orally administrated to a mouse (BALB/c, male), and after 30 minutes, the mouse was placed in a plastic container. Lipopolysaccharide (0.3 mg/mL) dissolved in physiological saline was aerosolized with an ultrasonic wave nebulizer (NE-U17, OMRON Corporation), and exposed to the mouse for 10 minutes. After 5 hours, the anesthetized mouse was sacrificed by exsanguination. A cannula was inserted in the respiratory tract and bronchoalveolar lavage (BAL) with 1 mL of 0.85% NaCl liquid containing 0.4% sodium citrate was carried out. This operation was repeated 3 times, to obtain a BAL fluid. The BAL fluid was centrifuged at 4° C. and ×200 g for 5 minutes, and the pellet was suspended in a physiological saline containing 0.1% BSA. The number of white blood cells was counted using Turks solution with a microscope, and the total white blood cell count was calculated. The white blood cells were fixed on a glass slide using Cytospin 3 (Thermo BioAnalysis Japan K. K.). The cells were stained with Diff-Quik (SYSMEX INTERNATIONAL REAGENTS CO., LTD.), and the number thereof was counted with a microscope, and the neutrophil ratio was calculated. The neutrophil ratio was multiplied by the total white blood cell count to calculate the total neutrophil count. An effect of the compound to be tested represents a percentage (%) of suppression ratio relative to the neutrophil count in a control.

Molecules are shown by their SMILES.

In general, EC50 refers to the concentration that produces a half-maximal response. For the compound `COc1ccc([C@@H]2CN(C)C(=O)[C@H]2NC(=O)Nc2ccc(F)cc2)cc1` (relative stereo) [EXAMPLE 1-7, 1-(4-fluorophenyl)-3-[(3S*,4R*)-4-(4-methoxyphenyl)-1-methyl-2-oxopyrrolidin-3-yl]urea], the EC50 at human FPRL1 turned out to be 0.22 nM. In addition, the inhibition in vivo at 1 mg/kg in the experiment with mouse (BALB/c, male) (dose 1 mg/kg) turned out to be 96.9%.

For the compound `N#Cc1ccc(NC(=O)N[C@@H]2C(=O)NC[C@H]2c2cc3c(cc2F)OCC3)cc1` (relative stereo) [Example 1-84, (−)-1-(4-cyanophenyl)-3-[(3S*,4R*)-4-(6-fluoro-2,3-dihydrobenzofuran-5-yl)-2-oxopyrrolidin-3-yl]urea], on human FPRL1, the EC50 came out at 1.92 nM. For the same compound, the “SUPPRESSION RATIO (%)” value with mouse (BALB/c, male) (dose 1 mg/kg) is 99.2%.

Take `O=C(Nc1ccc(F)cc1)N[C@@H]1C(=O)NC[C@H]1c1cc2c(cc1F)OCC2` (single isomer, unassigned) [EXAMPLE 1-16, (−)-1-[(3S*,4R*)-4-(6-fluoro-2,3-dihydrobenzofuran-5-yl)-2-oxopyrrolidin-3-yl]-3-(4-fluorophenyl)urea]: on human FPRL1, the EC50 came out at 0.24 nM. In addition, the inhibition in vivo at 1 mg/kg in the experiment on mouse (BALB/c, male) (dose 1 mg/kg) was 95.8%.

In the case of `COc1cc(F)c([C@@H]2CNC(=O)[C@H]2NC(=O)Nc2ccc(Cl)c(O)c2)c(F)c1` (relative stereo) [Example 1-72, (−)-1-(4-chloro-3-hydroxyphenyl)-3-[(3S*,4R*)-4-(2,6-difluoro-4-methoxyphenyl)-2-oxopyrrolidin-3-yl]urea], the EC50 at human FPRL1 was found to be 0.05 nM. Further, the “SUPPRESSION RATIO (%)” value with mouse (BALB/c, male) (dose 3 mg/kg) is listed as 93.3%.

With `COc1cc(F)c([C@@H]2CNC(=O)[C@H]2NC(=O)Nc2ccc(F)c(O)c2)c(F)c1` (relative stereo) [Example 1-71, (−)-1-[(3S*,4R*)-4-(2,6-difluoro-4-methoxyphenyl)-2-oxopyrrolidin-3-yl]-3-(4-fluoro-3-hydroxyphenyl)urea], the EC50 on human FPRL1 came to 0.09 nM. Besides, the “SUPPRESSION RATIO (%)” value in the experiment on mouse (BALB/c, male) (dose 3 mg/kg) came to 79.7%.

For `COc1ccc([C@@H]2CNC(=O)[C@H]2NC(=O)Nc2ccc(F)cc2)c(F)c1` (single isomer, unassigned) [EXAMPLE 1-9, (−)-1-[(3S*,4R*)-4-(2-fluoro-4-methoxyphenyl)-2-oxopyrrolidin-3-yl]-3-(4-fluorophenyl)urea], the EC50 at human FPRL1 turned out to be 0.45 nM. Besides, the inhibition in vivo at 3 mg/kg in the experiment with mouse (BALB/c, male) (dose 3 mg/kg) came out at 98.5%.

Turning to `COc1cc(F)c([C@@H]2CNC(=O)[C@H]2NC(=O)Nc2ccccc2)c(F)c1` (relative stereo) [Example 7-2, (−)-1-[(3S*,4R*)-4-(2,6-difluoro-4-methoxyphenyl)-2-oxopyrrolidin-3-yl]-3-phenylurea], the concentration for a half-maximal effect (EC50) at human FPRL1 was 0.45 nM. For the same compound, the “SUPPRESSION RATIO (%)” value with mouse (BALB/c, male) (dose 1 mg/kg) is 87.7%.

Turning to `CCN1C[C@@H](c2ccc(OC)cc2)[C@H](NC(=O)Nc2ccc(F)cc2)C1=O` (relative stereo) [Example 12-1, (−)-1-[(3S*,4R*)-1-Ethyl-4-(4-methoxyphenyl)-2-oxopyrrolidin-3-yl]-3-(4-fluorophenyl) urea], at human FPRL1, the half-maximal effective concentration (EC50) amounted to 0.13 nM. Further, in the experiment on mouse (BALB/c, male) (dose 3 mg/kg), the inhibition in vivo at 3 mg/kg was determined as 97.4%.

Regarding `COc1ccc([C@@H]2CN(CCO)C(=O)[C@H]2NC(=O)Nc2ccc(F)cc2)c(F)c1` (single isomer, unassigned) [EXAMPLE 25-1, (−)-1-[(3S*,4R*)-4-(2-Fluoro-4-methoxyphenyl)-1-(2-hydroxyethyl)-2-oxopyrrolidin-3-yl]-3-(4-fluorophenyl)urea], the EC50 at human FPRL1 was 0.04 nM. Moreover, the inhibition in vivo at 3 mg/kg in the experiment on mouse (BALB/c, male) (dose 3 mg/kg) stood at 99.1%.

Regarding `COc1cc(F)c([C@@H]2CNC(=O)[C@H]2NC(=O)Nc2ccc(C)c(O)c2)c(F)c1` (relative stereo) [Example 1-68, (−)-1-[(3S*,4R*)-4-(2,6-difluoro-4-methoxyphenyl)-2-oxopyrrolidin-3-yl]-3-(3-hydroxy-4-methyl)phenyl)urea], the EC50 at human FPRL1 stood at 0.08 nM. Also, the “SUPPRESSION RATIO (%)” value in the experiment with mouse (BALB/c, male) (dose 3 mg/kg) is on record as 85.6%.

Consider `COc1ccc([C@@H]2CNC(=O)[C@H]2NC(=O)Nc2ccc(F)cc2)cc1` (single isomer, unassigned) [EXAMPLE 1-1, (−)-1-(4-Fluorophenyl)-3-[(3S*,4R*)-4-(4-methoxyphenyl)-2-oxopyrrolidin-3-yl]urea], for which, at human FPRL1, the EC50 came to 0.09 nM. Moreover, the inhibition in vivo at 1 mg/kg with mouse (BALB/c, male) (dose 1 mg/kg) was 95.1%.

Take `COc1cc(F)c([C@@H]2CNC(=O)[C@H]2NC(=O)Nc2ccc(C#N)cc2)c(F)c1` (single isomer, unassigned) [EXAMPLE 1-23, (−)-1-(4-cyanophenyl)-3-[(3S*,4R*)-4-(2,6-difluoro-4-methoxyphenyl)-2-oxopyrrolidin-3-yl]urea]: the EC50 on human FPRL1 turned out to be 0.78 nM. For the same compound, the inhibition in vivo at 3 mg/kg in the experiment on mouse (BALB/c, male) (dose 3 mg/kg) worked out at 98.9%.

For the compound `COc1cnc([C@@H]2CNC(=O)[C@H]2NC(=O)Nc2ccc(F)cc2)c(F)c1` (single isomer, unassigned) [EXAMPLE 1-18, (−)-1-[(3S*,4R*)-4-(3-fluoro-5-methoxypyridin-2-yl)-2-oxopyrrolidin-3-yl]-3-(4-fluorophenyl)urea], at human FPRL1, the EC50 stood at 0.36 nM. In the experiment with mouse (BALB/c, male) (dose 1 mg/kg), the inhibition in vivo at 1 mg/kg is 98.3%.

On to `COc1cc(F)c([C@@H]2CN/C(=N\OCCO)[C@H]2NC(=O)Nc2ccc(C)cc2)c(F)c1` (single isomer, unassigned) [EXAMPLE 32-12, (−)-1-{(3S*,4R*,Z)-4-(2,6-difluoro-4-methoxyphenyl)-2-[(2-hydroxyethoxy)imino]pyrrolidin-3-yl}-3-(p-tolyl)urea], for which the EC50 on human FPRL1 is 0.27 nM. Further, the “SUPPRESSION RATIO (%)” value in the experiment on mouse (BALB/c, male) (dose 1 mg/kg) turned out to be 96.8%.

Take `CO/N=C1\NC[C@@H](c2c(F)cc(OC)cc2F)[C@@H]1NC(=O)Nc1ccc(F)cc1` (single isomer, unassigned) [EXAMPLE 32-3, (−)-1-[(3S*,4R*,Z)-4-(2,6-difluoro-4-methoxyphenyl)-2-(methoxyimino)pyrrolidin-3-yl]-3-(4-fluorophenyl)urea]: the EC50 on human FPRL1 was 0.05 nM. In addition, the inhibition in vivo at 3 mg/kg with mouse (BALB/c, male) (dose 3 mg/kg) turned out to be 99.1%.

With `COc1cc(F)c([C@@H]2CNC(=O)[C@H]2NC(=O)Nc2ccc(Cl)cc2)c(F)c1` (single isomer, unassigned) [EXAMPLE 1-22, (−)-1-(4-chlorophenyl)-3-[(3S*,4R*)-4-(2,6-difluoro-4-methoxyphenyl)-2-oxopyrrolidin-3-yl]urea], the EC50 at human FPRL1 is 0.11 nM. Besides, the inhibition in vivo at 1 mg/kg in the experiment on mouse (BALB/c, male) (dose 1 mg/kg) came out at 93.1%.

In the case of `COc1cc(F)c([C@@H]2CNC(=O)[C@H]2NC(=O)Nc2ccc(F)cc2)c(F)c1` (single isomer, unassigned) [EXAMPLE 1-12, (−)-1-[(3S*,4R*)-4-(2,6-difluoro-4-methoxyphenyl)-2-oxopyrrolidin-3-yl]-3-(4-fluorophenyl)urea], on human FPRL1, the EC50 came out at 0.06 nM. Besides, in the experiment on mouse (BALB/c, male) (dose 1 mg/kg), the inhibition in vivo at 1 mg/kg was determined as 96.8%.

`COc1cc(F)c([C@@H]2CN/C(=N\OCCO)[C@H]2NC(=O)Nc2ccc(F)cc2)c(F)c1` (single isomer, unassigned) [EXAMPLE 32-5, (−)-1-{(3S*,4R*,Z)-4-(2,6-difluoro-4-methoxyphenyl)-2-[(2-hydroxyethoxy)imino]pyrrolidin-3-yl}-3-(4-fluorophenyl)urea]: the EC50 on human FPRL1 worked out at 0.03 nM. For the same compound, the inhibition in vivo at 1 mg/kg in the experiment on mouse (BALB/c, male) (dose 1 mg/kg) was found to be 99.8%.

Turning to `COc1cc(F)c([C@@H]2CN(CCO)C(=O)[C@H]2NC(=O)Nc2ccc(F)cc2)c(F)c1` (single isomer, unassigned) [EXAMPLE 26-1, (−)-1-[(3S*,4R*)-4-(2,6-Difluoro-4-methoxyphenyl)-1-(2-hydroxyethyl)-2-oxopyrrolidin-3-yl]-3-(4-fluorophenyl)urea], on human FPRL1, the EC50 is 0.07 nM. Further, the inhibition in vivo at 1 mg/kg in the experiment on mouse (BALB/c, male) (dose 1 mg/kg) was 99.6%.

Turning to `COc1ccc([C@@H]2CN(C)C(=O)C2NC(=O)Nc2ccc(Cl)cc2)cc1` (mixture of isomers) [Example 1-55, (±)-trans-1-(4-chlorophenyl)-3-[4-(4-methoxyphenyl)-1-methyl-2-oxopyrrolidin-3-yl]urea], the EC50 at human FPRL1 came out at 1.02 nM. Also, the inhibition in vivo at 3 mg/kg in the experiment with mouse (BALB/c, male) (dose 3 mg/kg) amounted to 83.7%.

For `COc1cc(F)c([C@@H]2CNC(=O)[C@H]2NC(=O)Nc2ccc(C)cc2)c(F)c1` (relative stereo) [Example 9-1, (−)-1-[(3S*,4R*)-4-(2,6-Difluoro-4-methoxyphenyl)-2-oxopyrrolidin-3-yl]-3-(p-tolyl)urea], the EC50 on human FPRL1 was 0.86 nM. For the same compound, the “SUPPRESSION RATIO (%)” value in the experiment with mouse (BALB/c, male) (dose 3 mg/kg) came to 57.0%.
